Measured values taken from patent US10457672B2, “γ-diketones as Wnt/β-catenin signaling pathway activators” (Samumed, LLC, priority 2013, dated 2019).

The molecules below were run on Wnt/β-catenin signaling pathway (Wnt-responsive SP5 promoter luciferase reporter in SW480 cells) (assay: Wnt reporter (SP5 promoter-firefly luciferase) activation assay in SW480 cells). Details: Homo sapiens; SW480 colon cancer cells with SP5 promoter luciferase reporter; 24 h after compound addition; normalized to DMSO; concentration at half maximal activation.
Assay type: cell-based
Protocol: Compounds that enhance the Wnt activity, or Activators, were assayed as follows. Reporter cell lines were generated by stably transducing cells of colon cancer cell lines (with a lentiviral construct that included a Wnt-responsive promoter driving expression of the firefly luciferase gene).
Lentiviral constructs were made in which the SP5 promoter, a promoter having eight TCF/LEF binding sites derived from the SP5 promoter, was linked upstream of the firefly luciferase gene. The lentiviral constructs also included a hygromycin resistance gene as a selectable marker. The SP5 promoter construct was used to transduce SW480 cells, a colon cancer cell line having a mutated APC gene that generates a truncated APC protein, leading to de-regulated accumulation of β-catenin.
Cultured SW480 cells bearing a reporter construct were distributed at approximately 10,000 cells per well into 384- or 96-well multiwell plates. Compounds from a small molecule compound library were then added to the wells in half-log dilutions using a maximum concentration of three or ten micromolar. A series of control wells for each cell type received only buffer and compound solvent DMSO. Twenty-four hours after the addition of compound, reporter activity for luciferase was assayed, for example, by addition of the BrightGlo luminescence reagent (Promega) and the Victor3 plate reader (Perkin Elmer). Readings were normalized to DMSO only treated cells, and any activities above DMSO were considered activation. Compounds were considered activators if reporter activities were 2× fold or greater than DMSO. EC50 is the concentration at half maximal activation.
Work on `COc1ccc(C(=O)CCC(=O)c2cccnn2)cc1OC` [Compound 433, 1-(3,4-Dimethoxyphenyl)-4-(pyridazin-3-yl)butane-1,4-dione] yielded an EC50 greater than 10000 nM.
Work on `O=C(CCC(=O)c1cccc2c1OCCO2)c1ccco1` [Compound 442, 1-(2,3-Dihydrobenzo[b][1,4]dioxin-5-yl)-4-(furan-2-yl)butane-1,4-dione] yielded an EC50 of 2150 nM.
`Cc1ccccc1C(=O)CCC(=O)c1ccc2[nH]ccc2c1` [Compound 445, 1-(1H-indol-5-yl)-4-(o-tolyl)butane-1,4-dione] gave an EC50 of 10 nM.
`Cc1ccc(C(=O)CCC(=O)c2ccc3[nH]ccc3c2)cc1` [Compound 447, 1-(1H-Indol-5-yl)-4-(p-tolyl)butane-1,4-dione] was tested, and the EC50 was greater than 10000 nM.
`O=C(CCC(=O)c1cccs1)c1ccc2[nH]ccc2c1` [Compound 451, 1-(1H-Indol-5-yl)-4-(thiophen-2-yl)butane-1,4-dione] showed an EC50 of 37 nM.
Work on `Cc1ccccc1C(=O)CCC(=O)c1ccc2occc2c1` [Compound 455, 1-(Benzofuran-5-yl)-4-(o-tolyl)butane-1,4-dione] yielded an EC50 of 32 nM.
`Cc1cccc(C(=O)CCC(=O)c2ccc3occc3c2)c1` [Compound 456, 1-(Benzofuran-5-yl)-4-(m-tolyl)butane-1,4-dione] showed an EC50 of 673 nM.
With `Cc1ccc(C(=O)CCC(=O)c2ccc3occc3c2)cc1` [Compound 457, 1-(Benzofuran-5-yl)-4-(p-tolyl)butane-1,4-dione] the EC50 was 2890 nM.
In the case of `O=C(CCC(=O)c1ccco1)c1ccc2occc2c1` [Compound 462, 1-(Benzofuran-5-yl)-4-(furan-2-yl)butane-1,4-dione], the EC50 is reported as 424 nM.
`Cc1ccccc1C(=O)CCC(=O)c1ccc2ocnc2c1` [Compound 485, 1-(Benzo[d]oxazol-5-yl)-4-(o-tolyl)butane-1,4-dione] was tested, and the EC50 was greater than 10000 nM.
In the case of `O=C(CCC(=O)c1ccccc1F)c1ccc2[nH]ncc2c1` [Compound 495, 1-(2-Fluorophenyl)-4-(1H-indazol-5-yl)butane-1,4-dione], the EC50 is reported as 8 nM.
With `O=C(CCC(=O)c1ccc2[nH]ncc2c1)c1ccc(F)cc1` [Compound 497, 1-(4-Fluorophenyl)-4-(1H-indazol-5-yl)butane-1,4-dione] the EC50 was 48 nM.
For `O=C(CCC(=O)c1ccccc1C(F)(F)F)c1ccc2[nH]ncc2c1` [Compound 498, 1-(1H-Indazol-5-yl)-4-(2-(trifluoromethyl)phenyl)butane-1,4-dione], the EC50 was 12 nM.
With `Cc1ccc(C(=O)CCC(=O)c2ccc3[nH]ncc3c2)cc1` [Compound 503, 1-(1H-Indazol-5-yl)-4-(p-tolyl)butane-1,4-dione] the EC50 was 487 nM.
Work on `O=C(CCC(=O)c1ccccn1)c1ccc2[nH]ncc2c1` [Compound 507, 1-(1H-Indazol-5-yl)-4-(pyridin-2-yl)butane-1,4-dione] yielded an EC50 of 36 nM.
`O=C(CCC(=O)c1ccc2[nH]ncc2c1)c1ccccc1` [Compound 513, 1-(1H-Indazol-5-yl)-4-phenylbutane-1,4-dione] was tested, and the EC50 was 39 nM.
Molecule `O=C(CCC(=O)c1ccco1)c1ccc2[nH]ncc2c1` [Compound 515, 1-(Furan-2-yl)-4-(1H-indazol-5-yl)butane-1,4-dione] has an EC50 of 127 nM.
For `Cc1ccccc1C(=O)CCC(=O)c1c[nH]c2ccccc12` [Compound 518, 1-(1H-Indol-3-yl)-4-(o-tolyl)butane-1,4-dione], the EC50 was 646 nM.
`O=C(CCC(=O)c1c[nH]c2ccccc12)c1cccs1` [Compound 524, 1-(1H-Indol-3-yl)-4-(thiophen-2-yl)butane-1,4-dione] showed an EC50 of 88 nM.
In the case of `Cc1ccccc1C(=O)CCC(=O)c1n[nH]c2ccccc12` [Compound 528, 1-(1H-Indazol-3-yl)-4-(o-tolyl)butane-1,4-dione], the EC50 is reported as 148 nM.
In the case of `Cc1cccc(C(=O)CCC(=O)c2n[nH]c3ccccc23)c1` [Compound 529, 1-(1H-Indazol-3-yl)-4-(m-tolyl)butane-1,4-dione], the EC50 is reported as 695 nM.
`O=C(CCC(=O)c1ccccc1F)c1ccccn1` [Compound 538, 1-(2-Fluorophenyl)-4-(pyridin-2-yl)butane-1,4-dione] was tested, and the EC50 was 63 nM.
With `O=C(CCC(=O)c1ccccc1C(F)(F)F)c1ccccn1` [Compound 541, 1-(Pyridin-2-yl)-4-(2-(trifluoromethyl)phenyl)butane-1,4-dione] the EC50 was 2810 nM.
In the case of `Cc1ccccc1C(=O)CCC(=O)c1ccccn1` [Compound 544, 1-(Pyridin-2-yl)-4-(o-tolyl)butane-1,4-dione], the EC50 is reported as 900 nM.
`COc1ccccc1C(=O)CCC(=O)c1ccccn1` [Compound 547, 1-(2-Methoxyphenyl)-4-(pyridin-2-yl)butane-1,4-dione] showed an EC50 greater than 10000 nM.
For `O=C(CCC(=O)c1ccco1)c1ccccn1` [Compound 554, 1-(Furan-2-yl)-4-(pyridin-2-yl)butane-1,4-dione], the EC50 was greater than 10000 nM.
In the case of `O=C(CCC(=O)c1ccccc1F)c1cccs1` [Compound 557, 1-(2-Fluorophenyl)-4-(thiophen-2-yl)butane-1,4-dione], the EC50 is reported as 26 nM.
Molecule `O=C(CCC(=O)c1ccccc1C(F)(F)F)c1cccs1` [Compound 559, 1-(Thiophen-2-yl)-4-(2-(trifluoromethyl)phenyl)butane-1,4-dione] has an EC50 of 340 nM.
For `Cc1ccccc1C(=O)CCC(=O)c1cccs1` [Compound 560, 1-(Thiophen-2-yl)-4-(o-tolyl)butane-1,4-dione], the EC50 was 55 nM.
Molecule `COc1ccccc1C(=O)CCC(=O)c1cccs1` [Compound 562, 1-(2-Methoxyphenyl)-4-(thiophen-2-yl)butane-1,4-dione] has an EC50 of 106 nM.
With `O=C(CCC(=O)c1ncccc1F)c1ccc2c(c1)OCCO2` [Compound 569, 1-(2,3-Dihydrobenzo[b][1,4]dioxin-6-yl)-4-(3-fluoropyridin-2-yl) butane-1,4-dione] the EC50 was 1.96 nM.
`O=C(CCC(=O)c1ncccc1C(F)(F)F)c1ccc2c(c1)OCCO2` [Compound 570, 1-(2,3-Dihydrobenzo[b][1,4]dioxin-6-yl)-4-(3-(trifluoromethyl)pyridin-2-yl)butane-1,4-dione] gave an EC50 of 26 nM.
Work on `O=C(CCC(=O)c1ncccn1)c1ccccc1` [Compound 718, 1-Phenyl-4-(pyrimidin-2-yl)butane-1,4-dione] yielded an EC50 of 681 nM.
In the case of `O=C(CCC(=O)c1ncccn1)c1ccc2c(c1)CCCC2` [Compound 737, 1-(Pyrimidin-2-yl)-4-(5,6,7,8-tetrahydronaphthalen-2-yl)butane-1,4-dione], the EC50 is reported as 22 nM.
With `O=C(CCC(=O)c1ncccc1Cl)c1ccc2c(c1)OCCO2` [Compound 767, 1-(3-Chloropyridin-2-yl)-4-(2,3-dihydrobenzo[b][1,4]dioxin-6-yl) butane-1,4-dione] the EC50 was 2.16 nM.
